Measurements taken from patent publication US9045563B2, “CXC chemokine receptor 4 (CXCR4) antagonistic polypeptide” (priority 2007, dated 2015).
Ends that are not written are not given here.

Legend:
[1] = test system: CCR5 tropic HIV-1 NL4-3 92th014, HIV-1-7312 and SIVmac239; experiment: Infection of TZM-bl cells by R5 tropic lentiviruses; type: cell-based, SIV
X4 tropic HIV-2ROD10 = conditions: read-out: IC50, X4 tropic HIV-2 infection (Example 5), TZM-bl cells
Experimental: Two days later infection rates were determined and calculated as described.
After three days infection rates were determined using the Gal Screen assay. Shown are mean values±standard deviation derived from triplicate measurements.

Q: “LVRYTKKVPQVSTPTL [ALB408-423, LVRYTKKVPQVSTPTL]” was tested. Which “effect on R5 tropic lentiviral infection” value [1] did it give?
A: no effect

Q: What about the IC50 (X4 tropic HIV-2ROD10) of the same sequence?
A: 10 to 20 µM
